Bridge positions count the residues as written; N and C are the ends. Peptide text beside a SMILES is read from it.
Key:
[1] = tested on: POPC/POPE (80:20) model membrane; experiment: Membrane binding to POPC/POPE lipid bilayers by surface plasmon resonance (SPR); conditions: BIAcore T200, L1 chip, POPC/POPE (80:20) bilayer, 10 mM HEPES, 150 mM NaCl; for P/L Max, peptide-to-lipid maximum binding value: pH 7.4, injection 180 s, dissociation 600 s, nonlinear regression; for Kd: pH 7.4, nonlinear regression, read-out: KD, peptide concentration required to achieve half-maximum binding at equilibrium
Description: Cyclotides are reported to exert their biological activities via membrane binding, particularly by selective binding to lipids containing phosphatidylethanolamine (PE) headgroups. Therefore, to evaluate the functional impact of the single mutation on bracelet cyclotides, the membrane-binding ability of these variants towards PE-containing lipid bilayers was examined using surface plasmon resonance (SPR). The model membrane comprising 80% 1-palmitoyloleoyl-phosphatidylcholine (POPC) and 20% 1-palmitoyloleoyl-phosphatidylethanolamine (POPE) was used. Binding affinity was evaluated by the peptide-to-lipid maximum binding value (P/L max, mol/mol) and the peptide concentration required to achieve half-maximum binding at equilibrium (KD value, μM). […] The negative effect of the [I11G] bracelet cyclotide mutation on lipid binding was expected, as the mutation reduces surface hydrophobicity, a previously reported determinant of membrane binding. The SPR dose-response curves and sensorgrams are shown in Figure S4 in Supplementary Material.
The binding affinity of bracelet cyclotides and their variants toward lipid bilayers was studied using SPR, as described previously. Two synthetic lipids, 1-palmitoyl-2-oleoyl-glycero-3-phosphocholine (POPC) and 1-palmitoyl-2-oleoyl-sn-glycero-3-phosphoethanolamine (POPE), were purchased from Avanti Polar Lipids (USA). Briefly, homogenous, small, unilamellar vesicles composed of POPC/POPE (80:20, mol/mol) were obtained by extruding the vesicle suspension through a 50-nm pore size polycarbonate membrane. L1 sensor chips and BIAcore T200 instrument were used (Cytiva, Marlborough, MA, USA). After the lipid was loaded and formed a bilayer membrane on the L1 chip, peptide solutions were injected over the lipid surface for 180 s and the dissociation was monitored for 600 s. Peptides were tested at concentrations ranging from 4–32 μM. Peptide-to-lipid molar ratio and KD values were calculated by nonlinear regression using GraphPad Prism software (version 8.3.1). Peptide solutions and lipid vesicles were prepared in HEPES buffer (10 mM HEPES, 150 mM NaCl, pH 7.4, filtered) for SPR studies.

[2] = tested on: HeLa cells; experiment: Cytotoxicity against HeLa cells, resazurin assay; type: cell-based; conditions: 5000 cells/well, 24-h incubation with peptide, then resazurin 18 h, triplicate, mean ± SEM
Protocol: To further confirm the activity of these mutants, their cytotoxicity against HeLa cancer cells was evaluated along with wild-type bracelet cyclotides. […] Of the four [I11G] mutants, the hyen D analogue had the highest activity, possibly because hyen D has one more hydrophobic residue in loop 3 compared to the other three cyclotides, which may contribute to its higher lipid-binding capacity (P/L max = 0.37) and help offset the hydrophobicity loss caused by the [I11G] mutation.
The cytotoxicity of the peptides was evaluated using the resazurin assay, as described previously. HeLa cells were seeded at 5000 cells/well in a 96-well, flat-bottomed plate one day prior to the experiments. Peptide solutions were prepared in water and incubated with HeLa cells at concentrations ranging from 16 to 0.125 μM or 8 to 0.063 μM in triplicate (final concentrations). Water and 1% Triton X-100 (TX) were applied as negative and positive control, respectively. After 24-h incubation, 10 μL of resazurin (0.05%, w/v) was added and incubated with cells for another 18 h. The absorbance was measured at 540 and 620 nm on a microplate reader (Infinite M1000 Pro microplate reader, Tecan, Switzerland). The percentage of cell death was quantified by calculating the absorbance ratio, R (R = absorbance at 620/540), and applying the following equation: % Cell death = (Rsample − RH2O)/(RTX − RH2O) × 100. Data were analyzed with GraphPad Prism software (version 8.3.1) using Specific binding with Hill slope algorithm.

Structure (SMILES)	P/L Max, peptide-to-lipid maximum binding value [1] [mol/mol]	Kd [1] [µM]	CC50 on HeLa (half maximum cytotoxic concentration) [2] [µM]
CC[C@H](C)[C@@H]1NC(=O)[C@@H]2CSSC[C@@H]3NC(=O)[C@H](C(C)C)NC(=O)[C@H](CCCCN)NC(=O)[C@H](CC(=O)O)NC(=O)[C@H]([C@@H](C)O)NC(=O)[C@@H]4CSSC[C@H](NC(=O)[C@H](CO)NC(=O)[C@H](CCC(=O)O)NC(=O)CNC(=O)[C@H](CSSC[C@H](NC(=O)CNC(=O)[C@H]([C@@H](C)CC)NC(=O)[C@H](C(C)C)NC(=O)CNC(=O)[C@H](CO)NC1=O)C(=O)N[C@@H](CO)C(=O)N4)NC(=O)[C@@H]1CCCN1C(=O)[C@H]([C@@H](C)O)NC(=O)CNC(=O)[C@H](CC(N)=O)NC(=O)[C@H](CC(C)C)NC(=O)[C@H](Cc1ccc(O)cc1)NC3=O)C(=O)N[C@@H](C(C)C)C(=O)N[C@@H](Cc1ccc(O)cc1)C(=O)N[C@@H](CC(C)C)C(=O)N1CCC[C@H]1C(=O)N2 [[I11L]kB5] (cyclo(CGESCVYLPCISGVIGCSCTDKVCYLNGTP); disulfide 1-17, 5-19, 10-24)	0.22 ± 0.00	4.95 ± 0.12	4.31 ± 0.48
CC[C@H](C)[C@@H]1NC(=O)[C@H](C)NC(=O)[C@H](CO)NC(=O)[C@H](CO)NC(=O)[C@H]([C@@H](C)CC)NC(=O)[C@@H]2CSSC[C@@H]3NC(=O)[C@H](C(C)C)NC(=O)[C@H](CCCCN)NC(=O)[C@H](CO)NC(=O)[C@H](CCCCN)NC(=O)[C@@H]4CSSC[C@H](NC(=O)[C@H](CO)NC(=O)[C@H](CCC(=O)O)NC(=O)CNC(=O)[C@H](CSSC[C@H](NC(=O)CNC1=O)C(=O)N[C@@H](CO)C(=O)N4)NC(=O)[C@@H]1CCCN1C(=O)[C@H]([C@@H](C)CC)NC(=O)CNC(=O)[C@H](CC(N)=O)NC(=O)[C@H](CCCNC(=N)N)NC(=O)[C@H](Cc1ccc(O)cc1)NC3=O)C(=O)N[C@@H](C(C)C)C(=O)N[C@@H](Cc1c[nH]c3ccccc13)C(=O)N[C@@H]([C@@H](C)CC)C(=O)N1CCC[C@H]1C(=O)N2 [cyO2, cycloviolacin O2, reference compound] (cyclo(AIGCSCKSKVCYRNGIPCGESCVWIPCISS); disulfide 4-18, 6-22, 11-27)	0.28 ± 0.00	3.9 ± 0.11	1.05 ± 0.06
CC[C@H](C)[C@@H]1NC(=O)CNC(=O)[C@H](CC(N)=O)NC(=O)[C@H](CCCNC(=N)N)NC(=O)[C@H](Cc2ccc(O)cc2)NC(=O)[C@@H]2CSSC[C@@H]3NC(=O)[C@@H]4CCCN4C(=O)[C@H]([C@@H](C)CC)NC(=O)[C@H](Cc4c[nH]c5ccccc45)NC(=O)[C@H](C(C)C)NC(=O)[C@@H]4CSSC[C@H](NC(=O)[C@H](CO)NC(=O)[C@H](CSSC[C@H](NC(=O)[C@@H]5CCCN5C1=O)C(=O)NCC(=O)N[C@@H](CCC(=O)O)C(=O)N[C@@H](CO)C(=O)N4)NC(=O)CNC(=O)[C@H](C(C)C)NC(=O)[C@H](C)NC(=O)[C@H](CO)NC(=O)[C@H]([C@@H](C)O)NC(=O)[C@H](CC(C)C)NC3=O)C(=O)N[C@@H](CCCCN)C(=O)N[C@@H](CO)C(=O)N[C@@H](CCCCN)C(=O)N[C@@H](C(C)C)C(=O)N2 [cyO9, cycloviolacin O9, reference compound] (cyclo(AVGCSCKSKVCYRNGIPCGESCVWIPCLTS); disulfide 4-18, 6-22, 11-27)	0.30 ± 0.01	4.83 ± 0.17	2.35 ± 0.13
